ChEMBL document CHEMBL3217456 (Medchemcomm, 2014)
The source made the active and inactive calls. The calls are words filed in the database; no cut-off is given here.

Columns and labels:
[1] = molecular target: T1, Histamine H4 receptor (Homo sapiens, UniProt Q9H3N8); experiment: (§1) Antagonist activity at human recombinant histamine H4 receptor-RGS19 fusion protein expressed in Sf9 cells coexpressing Galphai2,Gbeta1gamma2 assessed as inhibition of histamine-induced […] hydrolysis preincubated for 2 mins before [gamma32P]GTP addition measured after 20 mins by steady-state GTPase activity assay; type: functional
[2] = molecular target: T2, Histamine H3 receptor (Homo sapiens, UniProt Q9Y5N1); experiment: as §1, with “H3 receptor” for “H4 receptor-RGS19 fusion protein”, “Galphai2,Gbeta1gamma2 and RGS4” for “Galphai2,Gbeta1gamma2”; type: functional
[3] = molecular target: T3, Histamine H2 receptor (Homo sapiens, UniProt P25021); experiment: Antagonist activity at human recombinant histamine H2 receptor-Gsalphas fusion protein expressed in Sf9 cells assessed as inhibition of histamine-induced […] hydrolysis preincubated for 2 mins before [gamma32P]GTP addition measured after 20 mins by steady-state GTPase activity assay; type: functional
[4] = molecular target: T1, Histamine H4 receptor; experiment: Intrinsic activity at human recombinant histamine H4 receptor-RGS19 fusion protein expressed in Sf9 cells coexpressing Galphai2,Gbeta1gamma2 preincubated for 2 mins before [gamma32P]GTP addition measured after 20 mins by steady-state GTPase activity assay relative to histamine
[5] = molecular target: T2, Histamine H3 receptor; experiment: Intrinsic activity at human recombinant histamine H3 receptor expressed in Sf9 cells coexpressing Galphai2,Gbeta1gamma2 and RGS4 preincubated for 2 mins before [gamma32P]GTP addition measured after 20 mins by steady-state GTPase activity assay relative to histamine
[6] = molecular target: T3, Histamine H2 receptor; experiment: Intrinsic activity at human recombinant histamine H2 receptor-Gsalphas fusion protein expressed in Sf9 cells preincubated for 2 mins before [gamma32P]GTP addition measured after 20 mins by steady-state GTPase activity assay relative to histamine
[7] = molecular target: T1, Histamine H4 receptor; experiment: Antagonist activity at human recombinant histamine H4 receptor-RGS19 fusion protein expressed in Sf9 cells coexpressing Galphai2,Gbeta1gamma2 assessed as inhibition of histamine-induced [35S]GTPgammaS binding after 90 mins by liquid scintillation counting; type: functional
[8] = molecular target: T2, Histamine H3 receptor; experiment: Antagonist activity at human recombinant histamine H3 receptor expressed in Sf9 cells coexpressing Galphai2,Gbeta1gamma2 and RGS4 assessed as inhibition of histamine-induced [35S]GTPgammaS binding after 90 mins by liquid scintillation counting; type: functional
[9] = molecular target: T3, Histamine H2 receptor; experiment: Antagonist activity at human recombinant histamine H2 receptor-Gsalphas fusion protein expressed in Sf9 cells assessed as inhibition of histamine-induced [35S]GTPgammaS binding after 90 mins by liquid scintillation counting; type: functional
[10] = molecular target: T1, Histamine H4 receptor; experiment: Intrinsic activity at human recombinant histamine H4 receptor-RGS19 fusion protein expressed in Sf9 cells coexpressing Galphai2,Gbeta1gamma2 assessed as [35S]GTPgammaS binding at 10 uM after 90 mins by liquid scintillation counting relative to histamine; type: functional
[11] = molecular target: T2, Histamine H3 receptor; experiment: Intrinsic activity at human recombinant histamine H3 receptor expressed in Sf9 cells coexpressing Galphai2,Gbeta1gamma2 and RGS4 assessed as [35S]GTPgammaS binding at 10 uM after 90 mins by liquid scintillation counting relative to histamine; type: functional
[12] = molecular target: T3, Histamine H2 receptor; experiment: Intrinsic activity at human recombinant histamine H2 receptor-Gsalphas fusion protein expressed in Sf9 cells assessed as [35S]GTPgammaS binding at 10 uM after 90 mins by liquid scintillation counting relative to histamine; type: functional
[13] = molecular target: Histamine H1 receptor (Homo sapiens) (UniProt P35367); experiment: Antagonist activity at human recombinant histamine H1 receptor expressed in Sf9 cells coexpressing RGS4 assessed as inhibition of histamine-induced […] hydrolysis preincubated for 2 mins before [gamma32P]GTP addition measured after 20 mins by steady-state GTPase activity assay; type: functional
[14] = molecular target: Histamine H1 receptor (Homo sapiens) (UniProt P35367); experiment: Intrinsic activity at human recombinant histamine H1 receptor expressed in Sf9 cells coexpressing RGS4 preincubated for 2 mins before [gamma32P]GTP addition measured after 20 mins by steady-state GTPase activity assay relative to histamine
[15] = molecular target: T1, Histamine H4 receptor; experiment: Agonist activity at human recombinant histamine H4 receptor-RGS19 fusion protein expressed in Sf9 cells coexpressing Galphai2,Gbeta1gamma2 assessed as [35S]GTPgammaS binding after 90 mins by liquid scintillation counting; type: functional
[16] = molecular target: T2, Histamine H3 receptor; experiment: Agonist activity at human recombinant histamine H3 receptor expressed in Sf9 cells coexpressing Galphai2,Gbeta1gamma2 and RGS4 assessed as [35S]GTPgammaS binding after 90 mins by liquid scintillation counting; type: functional
[17] = molecular target: Histamine H1 receptor (Homo sapiens) (UniProt P35367); conditions: Sf9

Sequence of Histamine H1 receptor (Homo sapiens) (P35367 whole entry, the tested form may be a part): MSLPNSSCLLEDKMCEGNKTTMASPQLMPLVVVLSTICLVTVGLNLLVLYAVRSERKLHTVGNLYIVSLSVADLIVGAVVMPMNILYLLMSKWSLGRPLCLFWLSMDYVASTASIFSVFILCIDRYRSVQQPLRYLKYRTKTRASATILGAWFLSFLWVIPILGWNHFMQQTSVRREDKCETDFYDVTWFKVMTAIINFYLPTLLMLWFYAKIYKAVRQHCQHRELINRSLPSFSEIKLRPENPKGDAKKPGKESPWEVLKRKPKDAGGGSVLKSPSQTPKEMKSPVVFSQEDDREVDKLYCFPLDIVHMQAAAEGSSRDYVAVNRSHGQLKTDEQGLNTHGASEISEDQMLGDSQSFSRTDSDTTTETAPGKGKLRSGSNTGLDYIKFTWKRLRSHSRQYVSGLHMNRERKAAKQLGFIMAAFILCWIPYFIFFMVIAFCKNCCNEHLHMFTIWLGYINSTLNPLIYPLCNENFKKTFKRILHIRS
T1 sequence (Q9H3N8 whole entry, the tested form may be a part): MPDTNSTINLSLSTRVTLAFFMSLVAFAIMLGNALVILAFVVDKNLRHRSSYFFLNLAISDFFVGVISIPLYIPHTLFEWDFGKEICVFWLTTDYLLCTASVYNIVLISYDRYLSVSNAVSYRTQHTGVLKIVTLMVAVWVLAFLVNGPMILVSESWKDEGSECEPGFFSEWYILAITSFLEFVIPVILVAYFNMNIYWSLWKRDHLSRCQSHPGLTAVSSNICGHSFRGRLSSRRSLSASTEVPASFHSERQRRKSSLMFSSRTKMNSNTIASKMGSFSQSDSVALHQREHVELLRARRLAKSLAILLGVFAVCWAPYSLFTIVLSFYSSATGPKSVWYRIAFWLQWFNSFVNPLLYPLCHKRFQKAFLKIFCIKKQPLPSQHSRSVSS
T2 sequence (Q9Y5N1 whole entry, the tested form may be a part): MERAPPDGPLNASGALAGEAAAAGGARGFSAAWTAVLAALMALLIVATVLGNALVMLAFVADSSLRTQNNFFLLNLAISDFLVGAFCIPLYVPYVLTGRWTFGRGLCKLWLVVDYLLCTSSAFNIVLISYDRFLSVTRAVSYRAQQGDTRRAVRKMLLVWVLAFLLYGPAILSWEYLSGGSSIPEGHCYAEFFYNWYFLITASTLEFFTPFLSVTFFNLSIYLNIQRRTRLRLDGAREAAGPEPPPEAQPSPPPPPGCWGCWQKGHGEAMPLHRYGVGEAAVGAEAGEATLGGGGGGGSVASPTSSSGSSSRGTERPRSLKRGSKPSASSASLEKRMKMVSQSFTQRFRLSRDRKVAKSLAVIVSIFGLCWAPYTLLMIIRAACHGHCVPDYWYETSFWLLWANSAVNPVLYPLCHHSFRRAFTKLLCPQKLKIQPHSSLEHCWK
T3 sequence (P25021 whole entry, the tested form may be a part): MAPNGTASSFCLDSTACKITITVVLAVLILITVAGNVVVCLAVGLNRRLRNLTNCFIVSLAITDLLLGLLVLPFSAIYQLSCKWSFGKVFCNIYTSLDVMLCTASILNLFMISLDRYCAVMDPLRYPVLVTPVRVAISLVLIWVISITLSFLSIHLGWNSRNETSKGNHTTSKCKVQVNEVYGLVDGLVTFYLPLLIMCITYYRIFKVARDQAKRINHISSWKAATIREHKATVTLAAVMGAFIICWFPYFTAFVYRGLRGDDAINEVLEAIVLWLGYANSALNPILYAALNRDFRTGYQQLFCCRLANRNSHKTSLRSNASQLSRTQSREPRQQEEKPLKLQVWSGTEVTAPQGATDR

CC(CC(=O)/N=C(\N)NCCCc1ccc(CN(C)C)o1)c1cccs1 (configuration not stated)
pKb [1]: < 5 | pKb [2]: 5.77 | pKb [3]: 6.51 | Intrinsic activity [4]: -0.14 | Intrinsic activity [5]: -0.73 | Intrinsic activity [6]: -0.12

N#C/N=C(\NCCNc1ccnc(N)n1)NCCSc1ccccc1
pKb [7]: 5.43 | pKb [8]: 5.54 | pKb [9]: < 5 | Intrinsic activity [10]: -0.83 | Intrinsic activity [11]: -1.03 | Intrinsic activity [12]: -0.07 | pKb [13]: < 5 | Intrinsic activity [14]: -0.02

N/C(=N\C(=O)CC(c1ccccc1)c1ccccc1)NCCCc1cccnc1
pKb [1]: < 5 | pKb [2]: < 5 | pKb [3]: 6.14 | pKb [13]: 5.04 | Intrinsic activity [5]: -0.14 | Intrinsic activity [6]: -0.16 | Intrinsic activity [14]: 0.06

CN(C)Cc1ccc(CCCN/C(N)=N/C(=O)CC(c2ccccc2)c2nccs2)o1 (configuration not stated)
pKb [1]: < 5 | pKb [2]: 5.51 | pKb [3]: 6.13 | Intrinsic activity [5]: -0.62 | Intrinsic activity [6]: -0.13

CN/C(=N/C#N)NCCCCc1c[nH]c(C)n1
pKb [7]: < 5 | pKb [8]: < 5 | pKb [9]: < 5 | Intrinsic activity [10]: -0.23 | Intrinsic activity [11]: -0.13 | Intrinsic activity [12]: 0.04 | pKb [13]: < 5 | Intrinsic activity [14]: 0.01

Cc1nccn1CCCCCN/C(=N\C#N)NCCSc1ccccc1
pKb [7]: < 5 | pKb [8]: < 5 | pKb [9]: < 5 | Intrinsic activity [10]: -0.05 | Intrinsic activity [11]: -0.42 | Intrinsic activity [12]: -0.08 | pKb [13]: < 5 | Intrinsic activity [14]: 0.03

CN/C(=N/C#N)NCCCCc1nc(N)n[nH]1
pKb [9]: < 5 | Intrinsic activity [12]: 0.31 | pEC50 [15]: inactive | pEC50 [16]: inactive | pEC50 [17]: inactive

CN(C)Cc1ccc(CCCN/C(N)=N/C(=O)CC(c2ccccc2)c2ccccc2)o1
pKb [1]: < 5 | pKb [2]: 5.89 | pKb [3]: 7.03 | pKb [13]: 5.11 | Intrinsic activity [4]: -0.16 | Intrinsic activity [5]: -0.65 | Intrinsic activity [6]: -0.16 | Intrinsic activity [14]: -0.02

CN/C(=N/C#N)NCCCCCn1ccnc1C
pKb [8]: < 5 | pKb [9]: < 5 | Intrinsic activity [10]: 0.06 | Intrinsic activity [11]: -0.26 | Intrinsic activity [12]: -0.07 | pEC50 [15]: inactive | pKb [13]: < 5 | Intrinsic activity [14]: -0.01

Cc1nc(CCCN/C(=N\C#N)NCCSc2ccccc2)c[nH]1
pKb [8]: < 5 | pKb [9]: < 5 | Intrinsic activity [10]: 0.4 | Intrinsic activity [11]: -1.11 | Intrinsic activity [12]: -0.05 | EC50 [15]: 468 nM | pKb [13]: < 5.3 | Intrinsic activity [14]: 0.03

CN/C(=N/C#N)NCCCc1c[nH]c(C)n1
pKb [8]: < 5 | pKb [9]: < 5 | Intrinsic activity [10]: 0.74 | Intrinsic activity [11]: -0.52 | Intrinsic activity [12]: -0.02 | EC50 [15]: 550 nM | pKb [13]: inactive | Intrinsic activity [14]: inactive | pEC50 [17]: inactive

S=C(NC1CCCCC1)N1CCC(c2cnc[nH]2)CC1
Intrinsic activity [4]: -0.95

N#C/N=C(\NCCCCc1nc(N)n[nH]1)NCCSc1ccccc1
pKb [9]: < 5 | Intrinsic activity [12]: 0.03 | pEC50 [15]: inactive | pEC50 [16]: inactive | pKb [13]: < 5 | Intrinsic activity [14]: 0.01

N#C/N=C(/NCCCSc1nc(N)n[nH]1)NCCSc1ccccc1
pKb [9]: < 5 | Intrinsic activity [12]: -0.05 | pEC50 [15]: inactive | pEC50 [16]: inactive | pEC50 [17]: inactive

N#C/N=C(/NCCCCNc1nc(N)n[nH]1)NCCSc1ccccc1
pKb [9]: < 5 | Intrinsic activity [12]: -0.09 | pEC50 [15]: inactive | pEC50 [16]: inactive | pEC50 [17]: inactive

N#C/N=C(\NCCCCc1cnn[nH]1)NCCSc1ccccc1
pKb [9]: < 5 | Intrinsic activity [12]: -0.04 | pEC50 [15]: inactive | pEC50 [16]: inactive | pKb [13]: < 5 | Intrinsic activity [14]: -0.02

N/C(=N\C(=O)CC(c1ccccc1)c1nccs1)NCCCc1ncc[nH]1 (configuration not stated)
pKb [1]: < 5 | pKb [2]: 5.28 | pKb [3]: 5.19 | Intrinsic activity [5]: -0.46 | Intrinsic activity [6]: 0

N/C(=N\C(=O)CC(c1ccccc1)c1ccccc1)NCCCc1ccccc1
pKb [1]: < 5 | pKb [2]: 5.1 | pKb [3]: 5.89 | pKb [13]: 5.26 | Intrinsic activity [5]: -0.24 | Intrinsic activity [6]: -0.12 | Intrinsic activity [14]: -0.01

CN/C(=N\C#N)NCCCSc1nc(N)n[nH]1
pKb [9]: < 5 | Intrinsic activity [12]: -0.02 | pEC50 [15]: inactive | pEC50 [16]: inactive | pEC50 [17]: inactive

N#C/N=C(\NCCCNc1nc(N)n[nH]1)NCCSc1ccccc1
pKb [9]: < 5 | Intrinsic activity [12]: -0.01 | pEC50 [15]: inactive | pEC50 [16]: inactive | pEC50 [17]: inactive

N/C(=N\C(=O)CC(c1ccccc1)c1ccccc1)NCCCc1ccccn1
pKb [1]: < 5 | pKb [2]: 5.35 | pKb [3]: 5.68 | pKb [13]: 5.41 | Intrinsic activity [5]: -0.44 | Intrinsic activity [6]: 0 | Intrinsic activity [14]: 0.1

CN/C(=N\CCSCc1nc[nH]c1C)NC#N
pKb [7]: < 5 | pKb [9]: 5.77

CN/C(=N/C#N)NCCCNc1nc(N)n[nH]1
pKb [9]: < 5 | Intrinsic activity [12]: -0.03 | pEC50 [15]: inactive | pEC50 [16]: inactive | pEC50 [17]: inactive

N#C/N=C(/NCCNc1nccc(N)n1)NCCSc1ccccc1
pKb [8]: < 5 | pKb [9]: < 5 | Intrinsic activity [11]: -1.43 | Intrinsic activity [12]: -0.08 | pEC50 [15]: inactive | pKb [13]: < 5 | Intrinsic activity [14]: 0.01

N#C/N=C(/NCCCCc1c[nH]cn1)NCCSc1ccccc1
pKb [8]: 6.14 | Intrinsic activity [10]: 0.88 | Intrinsic activity [11]: -0.52 | EC50 [15]: 37.2 nM | Intrinsic activity [14]: 7%

N/C(=N\C(=O)CC(c1ccccc1)c1ccccc1)NCCCc1ccncc1
pKb [1]: < 5 | pKb [2]: 5.06 | pKb [3]: 6.14 | pKb [13]: < 5 | Intrinsic activity [5]: -0.08 | Intrinsic activity [6]: -0.12 | Intrinsic activity [14]: 0.08

N#C/N=C(/NCCCCNc1ccccn1)NCCSc1ccccc1
pKb [7]: < 5 | pKb [8]: < 5 | pKb [9]: < 5 | Intrinsic activity [10]: -0.34 | Intrinsic activity [11]: -0.36 | Intrinsic activity [12]: -0.13 | pKb [13]: < 5 | Intrinsic activity [14]: -0.01

N#C/N=C(/NCCCNc1nccc(N)n1)NCCSc1ccccc1
pKb [7]: < 5 | pKb [8]: 5.14 | pKb [9]: < 5 | Intrinsic activity [10]: -0.09 | Intrinsic activity [11]: -0.71 | Intrinsic activity [12]: -0.11 | pKb [13]: < 5 | Intrinsic activity [14]: 0.01

CN/C(=N/C#N)NCCCCc1nc[nH]c1C
pKb [9]: < 5 | Intrinsic activity [10]: 0.6 | Intrinsic activity [11]: 0.23 | Intrinsic activity [12]: 0.04 | EC50 [15]: 3630 nM | EC50 [16]: 1070 nM | pKb [13]: < 5 | Intrinsic activity [14]: -0.03

N#C/N=C(/NCCCNc1ccccn1)NCCSc1ccccc1
pKb [7]: < 5 | pKb [8]: < 5 | pKb [9]: < 5 | Intrinsic activity [10]: -0.1 | Intrinsic activity [11]: -0.21 | Intrinsic activity [12]: -0.12 | pKb [13]: < 5 | Intrinsic activity [14]: 0.02

CC(CC(=O)/N=C(\N)NCCCc1ccccc1)c1ccccc1 (configuration not stated)
pKb [1]: < 5 | pKb [2]: < 5 | pKb [3]: 5.89 | pKb [13]: 5.05 | Intrinsic activity [5]: -0.19 | Intrinsic activity [6]: -0.1 | Intrinsic activity [14]: -0.02
